Results on one substance are retold here after patent US9850493B2, “Biological methods for preparing a fatty dicarboxylic acid” (VERDEZYNE, INC., priority 2012, dated 2017).

This assay can be described thus: In vitro acyl-CoA oxidase activity assay of E. coli lysates. It counts as biochemical, Candida strain ATCC20336. Conditions: wild type enzyme, FIG. 21. An excerpt:
Acyl-CoA oxidases from a range of organisms were cloned into the E. coli expression vector pET26b (EMD4Biosciences, Darmstadt, Germany), which contains a kanamycin resistance cassette. The source of the acyl-CoA oxidase, the name of the gene, the primers and restriction enzymes used to clone the acyl CoA oxidase coding sequence into pET26b and the coding sequence are described herein. The acyl CoA oxidase coding sequences were amplified by PCR using the appropriate primers designed from cDNA libraries, published cDNA or genomic DNA sequences corresponding to the organism. […]
To express an enzyme, a colony from each transformation of Rosetta cells was used to start a 5 ml overnight culture of LB containing the antibiotics kanamycin (to select for pET26b) and chloramphenicol (to select for a second plasmid found in Rosetta II cells that mediates improved translation of eukaryotic proteins expressed in E. coli) grown at 37° C. The next morning, the overnight culture was used to seed 30 ml of LB containing kanamycin and chloramphenicol to an OD600 reading of 0.1. […]
To test the activity of the acyl CoA oxidase, cells from the overnight induction were pelleted at 1046×g at 4° C. in 50 ml conical tubes. […] The spectrophotometer was set to read for 5 minutes at 500 nm, 30° C. […]

On to “Pox5: wild type acyl CoA oxidase Pox5 from Candida strain ATCC20336”, for which the “activity on C6 and C8 substrates” value is on record as “low activity”; the “substrate chain length of optimal activity” value fell in the range of 12 to 18 carbons.
